# Assay results reported in patent publication US20230085307A1, “PYRIDAZINONE COMPOUND AND HERBICIDE” (NISSAN CHEMICAL CORPORATION, priority 2019, published 2023).
# Key:
# rice flat sedge = test: Test Example 3: herbicidal effect by foliage application, Wagner pot (Table 18, symbol E); assay type: in vivo, rice flat sedge (Cyperus iria)
# Summary of the method: (§1)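 Plants were sown in alluvial soil held under 0.1–0.5 cm standing water and grown 14 days in a greenhouse at 25–30 °C. An emulsifiable formulation, water-diluted to the set dose, was then sprayed onto the foliage, and effects were scored three weeks later using previously defined criteria.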
# barnyard grass [1] = test: Test Example 5: herbicidal effect by foliage application, plastic box (Table 20, symbol H); assay type: in vivo, barnyard grass (Echinochloa crus-galli); details: foliage application
# Summary of the method: (§2)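 Foliar spray test: emulsion formulation diluted in water to a set application rate, sprayed onto 14-day-old plants raised in diluvial soil at 25° C to 30° C under glass. Both herbicidal effect and crop effect rated visually three weeks later.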
# wild oat [2] = test: Test Example 4: herbicidal effect by soil treatment (Table 19, symbol I); assay type: in vivo, wild oat (Avena fatua)
# Summary of the method: (§3)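 Step 1: sow seeds in sterilized diluvial soil, cover ~1.5 cm. Step 2: spray diluted emulsion onto soil surface at predetermined rate. Step 3: greenhouse, 25–30° C, three weeks. Step 4: grade effect on each plant by earlier criteria.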
# green foxtail [3] = test: Test Example 5: herbicidal effect by foliage application, plastic box (Table 20, symbol G); assay type: in vivo, green foxtail (Setaria viridis); details: foliage application
# Summary of the method: as §2
# lambsquarters [4] = test: Test Example 4: herbicidal effect by soil treatment (Table 19, symbol O); assay type: in vivo, lambsquarters (Chenopodium album)
# Summary of the method: as §3
# lambsquarters [5] = test: Test Example 5: herbicidal effect by foliage application, plastic box (Table 20, symbol O); assay type: in vivo, lambsquarters (Chenopodium album); details: foliage application
# Summary of the method: as §2
# blackgrass [6] = test: Test Example 5: herbicidal effect by foliage application, plastic box (Table 20, symbol J); assay type: in vivo, blackgrass (Alopecurus myosuroides); details: foliage application
# Summary of the method: as §2
# velvetleaf [7] = test: Test Example 5: herbicidal effect by foliage application, plastic box (Table 20, symbol M); assay type: in vivo, velvetleaf (Abutilon theophrasti); details: foliage application
# Summary of the method: as §2
# redroot pigweed [8] = test: Test Example 4: herbicidal effect by soil treatment (Table 19, symbol N); assay type: in vivo, redroot pigweed (Amaranthus retroflexus); details: AAH 320 g/ha
# Summary of the method: as §3
# southern crabgrass [9] = test: Test Example 4: herbicidal effect by soil treatment (Table 19, symbol F); assay type: in vivo, southern crabgrass (Digitaria ciliaris)
# Summary of the method: as §3
# southern crabgrass [10] = test: Test Example 5: herbicidal effect by foliage application, plastic box (Table 20, symbol F); assay type: in vivo, southern crabgrass (Digitaria ciliaris); details: foliage application
# Summary of the method: as §2
# chickweed [11] = test: Test Example 4: herbicidal effect by soil treatment (Table 19, symbol P); assay type: in vivo, common chickweed (Stellaria media)
# Summary of the method: as §3
# barnyard grass [12] = test: Test Example 4: herbicidal effect by soil treatment (Table 19, symbol H); assay type: in vivo, barnyard grass (Echinochloa crus-galli)
# Summary of the method: as §3
# persian speedwell [13] = test: Test Example 4: herbicidal effect by soil treatment (Table 19, symbol R); assay type: in vivo, Persian speedwell (Veronica persica)
# Excerpt: [Test Example 4] Herbicidal Effect Test by Soil Treatment
# Sterilized diluvial soil was placed in a plastic box having a length of 21 cm, a width of 13 cm, and a depth of 7 cm. The seeds of each of southern crabgrass, green foxtail, barnyard grass, wild oat, blackgrass, Italian ryegrass, windgrass, velvetleaf, redroot pigweed, lambsquarters, chickweed, false cleavers, persian speedwell, corn, soybean, rice, wheat, beet, and rapeseed were sowed in a spot-like manner and covered with the soil having a thickness of about 1.5 cm. Subsequently, the emulsion agent of the compound of the present invention prepared according to Formulation Example 2 was diluted with water so as to achieve a predetermined herbicide amount, and the diluted emulsion agent was uniformly applied to the surface of the soil with a small-sized spray. The plastic box was placed in a greenhouse at 25° C. to 30° C. for growth of the plants. Three weeks after the herbicide application, the effect of the herbicide on each plant was evaluated according to the criteria of Test Example 1.
# redroot pigweed [14] = test: Test Example 5: herbicidal effect by foliage application, plastic box (Table 20, symbol N); assay type: in vivo, redroot pigweed (Amaranthus retroflexus); details: foliage application
# Summary of the method: as §2
# green foxtail [15] = test: Test Example 4: herbicidal effect by soil treatment (Table 19, symbol G); assay type: in vivo, green foxtail (Setaria viridis)
# Summary of the method: as §3
# barnyard grass [16] = test: Test Example 3: herbicidal effect by foliage application, Wagner pot (Table 18, symbol H); assay type: in vivo, barnyard grass (Echinochloa crus-galli)
# Summary of the method: as §1
# Italian ryegrass [17] = test: Test Example 5: herbicidal effect by foliage application, plastic box (Table 20, symbol K); assay type: in vivo, Italian ryegrass (Lolium multiflorum); details: foliage application
# Summary of the method: as §2
# wild oat [18] = test: Test Example 5: herbicidal effect by foliage application, plastic box (Table 20, symbol I); assay type: in vivo, wild oat (Avena fatua); details: foliage application
# Summary of the method: as §2
# chickweed [19] = test: Test Example 5: herbicidal effect by foliage application, plastic box (Table 20, symbol P); assay type: in vivo, common chickweed (Stellaria media); details: foliage application
# Summary of the method: as §2
# velvetleaf [20] = test: Test Example 4: herbicidal effect by soil treatment (Table 19, symbol M); assay type: in vivo, velvetleaf (Abutilon theophrasti)
# Summary of the method: as §3
# Italian ryegrass [21] = test: Test Example 4: herbicidal effect by soil treatment (Table 19, symbol K); assay type: in vivo, Italian ryegrass (Lolium multiflorum)
# Summary of the method: as §3
# Chinese sprangletop = test: Test Example 3: herbicidal effect by foliage application, Wagner pot (Table 18, symbol D); assay type: in vivo, chinese sprangletop (Leptochloa chinensis)
# Summary of the method: as §1
# windgrass = test: Test Example 5: herbicidal effect by foliage application, plastic box (Table 20, symbol L); assay type: in vivo, windgrass (Apera spica-venti); details: foliage application
# Summary of the method: as §2
# persian speedwell [22] = test: Test Example 5: herbicidal effect by foliage application, plastic box (Table 20, symbol R); assay type: in vivo, Persian speedwell (Veronica persica); details: foliage application
# Summary of the method: as §2
# blackgrass [23] = test: Test Example 4: herbicidal effect by soil treatment (Table 19, symbol J); assay type: in vivo, blackgrass (Alopecurus myosuroides); details: amount of applied herbicide 320 g/ha
# Summary of the method: as §3
# [24] = AAH 320 g/ha, three weeks after application
# [25] = amount of applied herbicide 320 g/ha
# [26] = 320 g/ha, evaluated three weeks after application
structure (smiles),measurement,setting,value
CCCC(=O)Oc1c(C)nn(C)c(=O)c1-c1c(-c2ccc(C(F)(F)F)cc2OC)sc2ccccc12 [1-156],"herbicidal effect on E (rice flat sedge), rating 0-5",rice flat sedge; 320 g/ha,3 (Herbicidal rate of 40% or more and less than 70%)
same,"H: barnyard grass, herbicidal effect",barnyard grass [1]; [24],1 (Herbicidal rate of 5% or more and less than 20%)
same,"I: wild oat, herbicidal effect rating",wild oat [2]; AAH 320 g/ha,0 (Herbicidal rate of 5% or less (almost no effect))
same,"G: green foxtail, herbicidal effect",green foxtail [3]; [24],3 (Herbicidal rate of 40% or more and less than 70%)
same,"O: lambsquarters, herbicidal effect rating",lambsquarters [4]; AAH 320 g/ha,3 (Herbicidal rate of 40% or more and less than 70%)
same,"O: lambsquarters, herbicidal effect",lambsquarters [5]; [24],2 (Herbicidal rate of 20% or more and less than 40%)
same,"J: blackgrass, herbicidal effect",blackgrass [6]; [24],0 (Herbicidal rate of 5% or less (almost no effect))
same,"M: velvetleaf, herbicidal effect",velvetleaf [7]; [24],0 (Herbicidal rate of 5% or less (almost no effect))
same,"N: redroot pigweed, herbicidal effect rating",redroot pigweed [8],0 (Herbicidal rate of 5% or less (almost no effect))
same,"F: southern crabgrass, herbicidal effect rating",southern crabgrass [9]; AAH 320 g/ha,0 (Herbicidal rate of 5% or less (almost no effect))
same,"F: southern crabgrass, herbicidal effect",southern crabgrass [10]; [24],0 (Herbicidal rate of 5% or less (almost no effect))
same,"P: chickweed, herbicidal effect rating",chickweed [11]; AAH 320 g/ha,0 (Herbicidal rate of 5% or less (almost no effect))
same,"H: barnyard grass, herbicidal effect rating",barnyard grass [12]; AAH 320 g/ha,0 (Herbicidal rate of 5% or less (almost no effect))
same,"R: persian speedwell, herbicidal effect rating",persian speedwell [13]; AAH 320 g/ha,0 (Herbicidal rate of 5% or less (almost no effect))
same,"N: redroot pigweed, herbicidal effect",redroot pigweed [14]; [24],3 (Herbicidal rate of 40% or more and less than 70%)
same,"G: green foxtail, herbicidal effect rating",green foxtail [15]; AAH 320 g/ha,0 (Herbicidal rate of 5% or less (almost no effect))
same,"herbicidal effect on H (barnyard grass), rating 0-5",barnyard grass [16]; 320 g/ha,3 (Herbicidal rate of 40% or more and less than 70%)
same,"K: Italian ryegrass, herbicidal effect",Italian ryegrass [17]; [24],4 (Herbicidal rate of 70% or more and less than 90%)
same,"I: wild oat, herbicidal effect",wild oat [18]; [24],3 (Herbicidal rate of 40% or more and less than 70%)
same,"P: chickweed, herbicidal effect",chickweed [19]; [24],5 (Herbicidal rate of 90% or more (almost completely withered))
same,"M: velvetleaf, herbicidal effect rating",velvetleaf [20]; AAH 320 g/ha,0 (Herbicidal rate of 5% or less (almost no effect))
same,"K: Italian ryegrass, herbicidal effect rating",Italian ryegrass [21]; AAH 320 g/ha,3 (Herbicidal rate of 40% or more and less than 70%)
same,"herbicidal effect on D (Chinese sprangletop), rating 0-5",Chinese sprangletop; 320 g/ha,3 (Herbicidal rate of 40% or more and less than 70%)
same,"L: windgrass, herbicidal effect",windgrass; [24],5 (Herbicidal rate of 90% or more (almost completely withered))
same,"R: persian speedwell, herbicidal effect",persian speedwell [22]; [24],3 (Herbicidal rate of 40% or more and less than 70%)
CCCC(=O)Oc1c(C)nn(C)c(=O)c1-c1c(-c2ccccc2)sc2ccc(C)cc12 [2-133],herbicidal effect on E: rice flat sedge,rice flat sedge; [25],5 (Herbicidal rate of 90% or more (almost completely withered))
same,herbicidal effect on H: barnyard grass,barnyard grass [1]; [26],0 (Herbicidal rate of 5% or less (almost no effect))
same,"I: wild oat, herbicidal effect rating",wild oat [2]; [25],0 (Herbicidal rate of 5% or less (almost no effect))
same,herbicidal effect on G: green foxtail,green foxtail [3]; [26],2 (Herbicidal rate of 20% or more and less than 40%)
same,"O: lambsquarters, herbicidal effect rating",lambsquarters [4]; [25],5 (Herbicidal rate of 90% or more (almost completely withered))
same,herbicidal effect on O: lambsquarters,lambsquarters [5]; [26],4 (Herbicidal rate of 70% or more and less than 90%)
same,herbicidal effect on J: blackgrass,blackgrass [6]; [26],0 (Herbicidal rate of 5% or less (almost no effect))
same,herbicidal effect on M: velvetleaf,velvetleaf [7]; [26],5 (Herbicidal rate of 90% or more (almost completely withered))
same,"F: southern crabgrass, herbicidal effect rating",southern crabgrass [9]; [25],0 (Herbicidal rate of 5% or less (almost no effect))
same,herbicidal effect on F: southern crabgrass,southern crabgrass [10]; [26],0 (Herbicidal rate of 5% or less (almost no effect))
same,"J: blackgrass, herbicidal effect rating",blackgrass [23],0 (Herbicidal rate of 5% or less (almost no effect))
same,"P: chickweed, herbicidal effect rating",chickweed [11]; [25],5 (Herbicidal rate of 90% or more (almost completely withered))
same,"H: barnyard grass, herbicidal effect rating",barnyard grass [12]; [25],0 (Herbicidal rate of 5% or less (almost no effect))
same,"R: persian speedwell, herbicidal effect rating",persian speedwell [13]; [25],0 (Herbicidal rate of 5% or less (almost no effect))
same,herbicidal effect on N: redroot pigweed,redroot pigweed [14]; [26],5 (Herbicidal rate of 90% or more (almost completely withered))
same,"G: green foxtail, herbicidal effect rating",green foxtail [15]; [25],0 (Herbicidal rate of 5% or less (almost no effect))
same,herbicidal effect on H: barnyard grass,barnyard grass [16]; [25],0 (Herbicidal rate of 5% or less (almost no effect))
same,herbicidal effect on K: Italian ryegrass,Italian ryegrass [17]; [26],3 (Herbicidal rate of 40% or more and less than 70%)
same,herbicidal effect on I: wild oat,wild oat [18]; [26],0 (Herbicidal rate of 5% or less (almost no effect))
same,herbicidal effect on P: chickweed,chickweed [19]; [26],5 (Herbicidal rate of 90% or more (almost completely withered))
same,"M: velvetleaf, herbicidal effect rating",velvetleaf [20]; [25],0 (Herbicidal rate of 5% or less (almost no effect))
same,"K: Italian ryegrass, herbicidal effect rating",Italian ryegrass [21]; [25],0 (Herbicidal rate of 5% or less (almost no effect))
same,herbicidal effect on D: Chinese sprangletop,Chinese sprangletop; [25],0 (Herbicidal rate of 5% or less (almost no effect))
same,herbicidal effect on L: windgrass,windgrass; [26],0 (Herbicidal rate of 5% or less (almost no effect))
same,herbicidal effect on R: persian speedwell,persian speedwell [22]; [26],2 (Herbicidal rate of 20% or more and less than 40%)
